From publication PMC9241945 (Microbiology Spectrum, 2022) come the findings set out here.

The target of the experiment is T1, CTP synthase PyrG (Staphylococcus aureus, UniProt A6QIX1).
T1 construct: pyrG from S. aureus Newman in pET-28a, purified on Ni-NTA
As to the kind of experiment: intrinsic fluorescence quenching titration. The format is binding.

T1 sequence (A6QIX1 whole entry): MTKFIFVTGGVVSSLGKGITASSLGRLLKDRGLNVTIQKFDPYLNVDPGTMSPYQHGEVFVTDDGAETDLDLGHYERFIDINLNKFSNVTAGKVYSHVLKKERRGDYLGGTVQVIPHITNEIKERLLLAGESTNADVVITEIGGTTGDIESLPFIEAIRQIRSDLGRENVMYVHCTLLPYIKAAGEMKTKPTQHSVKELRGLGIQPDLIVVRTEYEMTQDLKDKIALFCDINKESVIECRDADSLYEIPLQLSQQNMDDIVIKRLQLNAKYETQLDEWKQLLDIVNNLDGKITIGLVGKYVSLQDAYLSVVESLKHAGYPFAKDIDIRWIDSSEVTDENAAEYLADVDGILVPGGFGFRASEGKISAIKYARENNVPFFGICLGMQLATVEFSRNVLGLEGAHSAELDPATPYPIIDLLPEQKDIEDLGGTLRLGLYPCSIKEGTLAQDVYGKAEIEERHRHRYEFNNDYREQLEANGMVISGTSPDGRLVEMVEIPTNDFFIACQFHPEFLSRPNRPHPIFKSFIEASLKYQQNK

Broadly, the Kd is the constant that tells how readily two partners part at equilibrium. A low value points to tighter binding. In the case of `Nc1ncnc2c1ncn2[C@@H]1O[C@H](COP(=O)(O)OP(=O)(O)OP(=O)(O)O)[C@@H](O)[C@H]1O` [ATP], the Kd came out at 320 µM.
